Assay results reported in patent US20160304577A1, “GLYCOSYLATED GLYCOPHORIN PEPTIDES” (GLYCOTOPE GMBH, priority 2013, published 2016).
Entries after “also recorded” stand apart in the source; their conditions may differ. No end group written: not given here.

How the values were obtained:
dendritic cells [1] = assay: Effect of antigen processing inhibitors on presentation of TFα derived from aGPA (flow cytometry, Nemod-TF1); format: cell-based, human; conditions: DCs treated with inhibitor of lysosomal acidification prior to loading with aGPA
Description: DCs were pretreated with indicated concentrations of chloroquine (a) and ammonium chloride (b) before aGPA was added. Presentation of TFα was analyzed by flow cytometry using Nemod-TF1. Data are presented as the percentage of the relative presentation which was calculated according to the following formula: (percentage of positive cells incubated with antigen processing inhibitors)/(percentage of positive cells of untreated cells)×(100)). The means of one experiment performed in duplicates are shown.
In order to characterize the processing pathway of aGPA, dendritic cells were treated with inhibitors of lysosomal acidification, chloroquine and ammonium chloride (MHC class II processing) prior to loading. […] These findings verify that aGPA is processed in the cell before TFα is presented on the cell surface.

DCs = assay: Presentation of biotin-conjugated GPA-derived peptides on DCs, fluorescence-labeled streptavidin, flow cytometry; format: cell-based, human
Description: DCs were loaded with the biotin-conjugated peptides GPA1-9(3TF), GPA9-25(4TF), GPA9-25(6TF), GPA26-43(2TF), GPA34-55(4TF), GPA41-55(3TF), GPA45-55(2TF), GPA48-55(1TF) and GPA48-63(1TF). Presentation was determined by fluorescence-labeled streptavidin. The subpopulations of CD80+CD209+, CD80+CD209− and CD80−CD209− mature DCs were analyzed separately. Mean percentages+SD of one experiment performed in duplicates are shown.
DCs were loaded with the biotin-conjugated peptides. Presentation was determined by fluorescence-labeled streptavidin. The subpopulations CD80+CD209+, CD80+CD209- and CD80−CD209− mature DCs were analyzed separately. Mean percentages+SD of one experiment performed in triplicates are shown.
For that reason the GPA-derived TF-α glycosylated peptides GPA1-9(3TF), GPA9-25(4TF), GPA9-25(6TF), GPA26-43(2TF), GPA34-55(4TF), GPA41-55(3TF), GPA45-55(2TF), GPA48-55(1TF) and GPA48-63(1TF) were employed.
By using four different glycosylation variants of GPA26-43, it was aimed to investigate the effect of TFα-glycosylation on the presentation in more detail.

TFα-specific T cells [2] = assay: IFN-γ ELISPOT, restimulation of B. ovatus-primed T cells with peptide-loaded DCs; format: cell-based, human; conditions: T cells primed with TFα-positive B. ovatus strain
Description: PBMCs of a healthy donor were primed with DCs loaded with TFα positive B. ovatus (BO+). Restimulation with GPA26-43(2TF) and GPA34-55(4TF) was analyzed by IFN-γ ELISPOT. The mean numbers of IFN-γ+spots+SEM of one experiment performed in triplicates is shown.
In order to analyze whether DCs loaded with peptide GPA26-43(2TF) or GPA34-55(4TF) can activate TFα-specific T cells, they were used for restimulation of T cells primed with a TFα-positive B. ovatus strain. Restimulation was detected by an IFN-γ ELISPOT assay. […] Since TFα is the only overlapping structure between the TFα-positive B. ovatus strain and the TFα-glycosylated GPA-derived peptides GPA26-43(2TF) and GPA34-55(4TF), it is obvious that the restimulated T cells were TFα-specific. […] This immune response, when elicited in a human being, can protect against cells carrying said carbohydrate structure. In the case of tumor-associated carbohydrate antigens such as TFα, vaccination against and treatment of cancer comprising cells carrying said carbohydrate antigen is possible with these glycosylated glycophorin peptides. Therefore, based on this experiment, GPA-derived TF-α glycosylated peptides are proposed for the use of treating or preventing cancer in human.

TFα-specific T cells [3] = assay: IFN-γ ELISPOT, second restimulation of TFα-specific T cells with aGPA- or GPA-loaded dendritic cells; format: cell-based; conditions: T cells primed with TFα positive B. ovatus strain and restimulated with lysate of TFα positive human cell line
Description: PBMCs of a healthy donor were twice primed with DCs loaded with a TFα positive B. ovatus strain (BO+). Restimulation with DCs loaded with lysate of a TFα positive (HC+) or TFα negative (HC−) human cell line was analyzed by IFN-γ ELISPOT. T cells restimulated with TFα positive cells were further cultivated and restimulated in a second round with aGPA- and GPA-loaded DCs, which was analyzed by IFN-γ ELISPOT. The mean numbers of IFN-γ+spots+SEM of one experiment performed in triplicates (1st restimulation) or of four replicates (2nd restimulation) are shown. IFN-γ+spots of PBMCs without restimulation were subtracted. Statistical analysis was performed using 1 way ANOVA (***: P<0.001).
In order to analyze whether asialoglycophorin A (aGPA)-loaded dendritic cells (DCs) have the potential to activate TFα-specific T cells, a T cell culture, which was primed with a TFα positive B. ovatus strain and restimulated with lysate of a TFα positive human cell line, was restimulated in a second round with dendritic cells loaded with either aGPA or glycophorin A (GPA).

dendritic cells [4] = assay: Flow cytometry of TFα presentation on dendritic cells loaded with aGPA or GPA (Nemod-TF1, Nemod-TF2); format: cell-based, human
Description: GPA- and aGPA-loaded cells were stained with Nemod-TF1 and Nemod-TF2 and analyzed by flow cytometry. The subpopulations of CD80+CD209+, CD80+CD209− and CD80−CD209− cells were analyzed separately. The mean percentages of positive cells+SD of one experiment performed in duplicates are shown.
DCs were loaded with aGPA and GPA for indicated time periods. Presentation of TFα was analyzed on the subpopulations of CD80+CD209+ (a), CD80+CD209− (b) and CD80−CD209− (c) DCs by flow cytometry using Nemod-TF1. Data are presented as mean percentage of positive cells±SD of one experiment performed in duplicates.
In order to analyze the antigen presentation of aGPA in more detail, dendritic cells loaded with aGPA and GPA were analyzed by flow cytometry using anti-TFα antibodies and for co-staining anti-CD80 and anti-CD209 antibodies.
In order to test whether aGPA is unspecifically attached to the cell surface of DCs, aGPA was added 10 min prior to the analysis of surface presentation with the TFα-specific antibody Nemod-TF1 and compared to TFα-presentation after loading times of 1 and 2 d. […] This is important since the presentation on MHC proteins is crucial for activation of TF-α specific T cells.

CCN(CC)CCCC(C)Nc1ccnc2cc(Cl)ccc12 (stereo not shown) [chloroquine]
effect on presentation of TFα derived from aGPA (dendritic cells [1]): blocked the presentation of TFα

GPA26-43: the unglycosylated GPA26-43, biotin-conjugated peptide (NDTHKRDTYAATPRAHEV; also: biotin-conjugated, site not given here) [reference compound]
presentation of peptide on DCs (percentage of positive cells) (DCs): presented at a similar percentage

GPA1-9(3TF): biotin-conjugated GPA-derived TF-α glycosylated peptide (SSTTGVAMH; also: 3 TF-α glycans, sites not given here, biotin-conjugated, site not given here)
presentation of peptide on DCs (percentage of positive cells) (DCs): strongest presentation on DCs

GPA26-43(1TFaa33): glycosylation variant of GPA26-43, biotin-conjugated peptide (NDTHKRDT(TF‑α)YAATPRAHEV; also: biotin-conjugated, site not given here)
presentation of peptide on DCs (percentage of positive cells) (DCs): presented at a similar percentage

GPA26-43(2TF): biotin-conjugated GPA-derived TF-α glycosylated peptide (NDTHKRDTYAATPRAHEV; also: 2 TF-α glycans, sites not given here, biotin-conjugated, site not given here)
presentation of peptide on DCs (percentage of positive cells) (DCs): strongest presentation on DCs; also recorded: better presentation on DCs than GPA34-55(4TF); also recorded: found to be presented on DCs
activation of T cells on restimulation with peptide-loaded DCs (IFN-γ ELISPOT) (TFα-specific T cells [2]): stronger activation of T cells compared to DCs loaded with GPA34-55(4TF)

Cl.N [ammonium chloride]
effect on presentation of TFα derived from aGPA (dendritic cells [1]): blocked the presentation of TFα

GPA26-43(1TFaa37): glycosylation variant of GPA26-43, biotin-conjugated peptide (NDTHKRDTYAAT(TF‑α)PRAHEV; also: biotin-conjugated, site not given here)
presentation of peptide on DCs (percentage of positive cells) (DCs): less effectively presented than GPA26-43(1TFaa33) and GPA26-43, but more effectively than GPA26-43(2TF)

GPA48-63(1TF): biotin-conjugated GPA-derived TF-α glycosylated peptide (VRTVYPPEEETGERVQ; also: 1 TF-α glycan, site not given here, biotin-conjugated, site not given here)
presentation of peptide on DCs (percentage of positive cells) (DCs): strongest presentation on DCs

B1: asialoglycophorin A (protein)
chain: SSTTGVAMHTSTSSSVTKSYISSQTNDTHKRDTYAATPRAHEVSEISVRTVYPPEEETGERVQLAHHFSEPEITLIIFGVMAGVIGTILLISTGIRRLIKKSPSDVKPLPSPDTDVPLSSVEIENPETSDQ
notes: asialoglycophorin A (aGPA)
activation of T cells on restimulation with loaded dendritic cells (IFN-γ ELISPOT) (TFα-specific T cells [3]): visible activation of T cells
percentage of Nemod-TF1- and Nemod-TF2-positive cells (TFα presentation) on loaded DCs (dendritic cells [4]; CD80+CD209+, CD80+CD209− and CD80−CD209− DCs): increased percentage of Nemod-TF1- and Nemod-TF2-positive cells compared to GPA-loaded cells
TFα presentation on DCs when added just before staining (unspecific attachment) (dendritic cells [4]; added 10 min prior to analysis with Nemod-TF1, compared to loading times of 1 and 2 d, all three DC subpopulations): no presentation was found

B2: glycophorin A (protein)
chain: B1 chain
notes: glycophorin A (GPA)
activation of T cells on restimulation with loaded dendritic cells (IFN-γ ELISPOT) (TFα-specific T cells [3]): almost no restimulation
